ChEMBL document CHEMBL1201862, “PubChem BioAssay data set” (2004)
Calls of active or inactive are those of the source.

What was measured:
[1] = target: T1, Carboxy-terminal domain RNA polymerase II polypeptide A small phosphatase 1 (Homo sapiens, UniProt Q9GZU7); assay: inhibitors of CTDSP1, concentration-response testing, biochemical assay, absorbance-based, actives from ultra-high-throughput screening (AID 540297); assay type: functional
T1 sequence (Q9GZU7 whole entry): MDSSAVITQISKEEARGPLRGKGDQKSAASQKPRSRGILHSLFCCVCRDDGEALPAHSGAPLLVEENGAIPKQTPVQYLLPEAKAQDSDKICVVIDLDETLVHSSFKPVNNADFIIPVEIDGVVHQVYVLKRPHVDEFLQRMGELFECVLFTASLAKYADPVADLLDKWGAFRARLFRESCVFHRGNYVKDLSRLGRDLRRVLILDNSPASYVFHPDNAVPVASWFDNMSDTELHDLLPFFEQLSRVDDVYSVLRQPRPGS

[2] = target: T2, RNA-binding protein pos-1 (Caenorhabditis elegans, UniProt G5EF15); assay: inhibitors of POS-1/mex-3 RNA binding, dose response, biochemical, fluorescence polarization (AID 1964);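 also: purified POS-1 fused to maltose binding protein made in E. coli; potency of compounds blocking POS-1 binding to fluorescent RNA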
T2 sequence (G5EF15 whole entry): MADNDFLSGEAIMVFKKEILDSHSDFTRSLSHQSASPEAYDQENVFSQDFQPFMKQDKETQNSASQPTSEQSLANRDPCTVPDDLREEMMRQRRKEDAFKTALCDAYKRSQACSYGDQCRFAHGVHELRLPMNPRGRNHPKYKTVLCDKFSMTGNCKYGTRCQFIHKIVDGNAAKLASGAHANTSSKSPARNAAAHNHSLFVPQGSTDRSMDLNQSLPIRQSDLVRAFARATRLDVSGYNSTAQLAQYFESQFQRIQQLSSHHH

[3] = target: T3, Zinc finger protein mex-5 (Caenorhabditis elegans, UniProt Q9XUB2); assay: MEX-5/TCR-2 RNA interaction inhibitors, dose response, biochemical, C. elegans, fluorescence polarization (AID 1960)
T3 sequence (Q9XUB2 whole entry): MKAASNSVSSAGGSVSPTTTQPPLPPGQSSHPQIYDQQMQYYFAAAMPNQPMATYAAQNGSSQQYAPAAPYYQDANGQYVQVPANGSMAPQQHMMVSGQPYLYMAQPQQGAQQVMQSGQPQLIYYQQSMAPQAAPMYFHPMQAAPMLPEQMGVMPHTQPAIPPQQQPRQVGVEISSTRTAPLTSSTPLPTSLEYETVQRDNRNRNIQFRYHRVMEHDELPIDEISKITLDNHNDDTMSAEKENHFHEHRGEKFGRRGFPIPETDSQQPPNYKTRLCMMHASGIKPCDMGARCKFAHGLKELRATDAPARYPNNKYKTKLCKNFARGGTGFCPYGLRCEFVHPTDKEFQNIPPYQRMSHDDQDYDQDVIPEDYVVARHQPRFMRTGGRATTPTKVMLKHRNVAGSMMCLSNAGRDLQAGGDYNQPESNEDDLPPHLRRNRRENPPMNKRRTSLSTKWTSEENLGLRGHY

[4] = Luminescence Cell-Based Dose Retest to Confirm Inhibitors of Cancer Stem Cells. [Related pubchem assays (depositor defined):AID2717, AID2721]; assay type: functional; conditions: Homo sapiens
[5] = target: Heat shock protein HSP 90-alpha (Homo sapiens, UniProt P07900); assay type: functional, organism-based
[6] = Luminescence Cell-Based Dose Confirmation HTS to Identify Inhibitors of Platelet Dense Granule Release. [Related pubchem assays: 1663 (Primary HTS), 1678 (Summary of Project)]; assay type: functional
[7] = target: Luciferin 4-monooxygenase (Photinus pyralis, UniProt P08659); assay: firefly luciferase enzyme inhibitors, dose response, biochemical, luminescence (AID 1891)
[8] = target: T4, Protein RecA (Mycobacterium tuberculosis, UniProt P9WHJ3); assay: Fluorescence Cell-Free Homogeneous Dose Retest to Identify Inhibitors of RecA-Intein Splicing Activity. [Related pubchem assays (depositor defined):AID2097, AID2223, AID489010, AID492950]; assay type: functional
T4 sequence (P9WHJ3 whole entry): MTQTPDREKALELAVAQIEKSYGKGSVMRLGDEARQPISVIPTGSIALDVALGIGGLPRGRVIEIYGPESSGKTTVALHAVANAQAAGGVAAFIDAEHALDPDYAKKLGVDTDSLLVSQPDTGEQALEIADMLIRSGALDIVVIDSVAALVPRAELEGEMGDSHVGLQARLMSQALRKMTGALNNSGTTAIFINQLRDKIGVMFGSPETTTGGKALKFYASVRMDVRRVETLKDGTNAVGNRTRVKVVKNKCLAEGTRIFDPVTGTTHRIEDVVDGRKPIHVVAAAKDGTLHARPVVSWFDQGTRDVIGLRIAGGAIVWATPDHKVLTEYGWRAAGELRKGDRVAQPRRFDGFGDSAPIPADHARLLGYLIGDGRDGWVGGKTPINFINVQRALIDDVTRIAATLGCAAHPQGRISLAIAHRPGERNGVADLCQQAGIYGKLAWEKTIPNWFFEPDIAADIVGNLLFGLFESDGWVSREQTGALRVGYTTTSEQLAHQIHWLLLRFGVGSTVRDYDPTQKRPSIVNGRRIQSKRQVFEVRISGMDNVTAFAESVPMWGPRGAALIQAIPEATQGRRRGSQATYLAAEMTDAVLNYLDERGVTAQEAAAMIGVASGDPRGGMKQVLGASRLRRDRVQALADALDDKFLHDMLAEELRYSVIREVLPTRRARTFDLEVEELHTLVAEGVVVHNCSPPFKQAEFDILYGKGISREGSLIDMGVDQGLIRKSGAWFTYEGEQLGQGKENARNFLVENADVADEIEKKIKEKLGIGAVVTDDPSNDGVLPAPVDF

[9] = target: T5, Streptokinase A (Streptococcus pyogenes serotype M1, UniProt P10520); assay: S. pyogenes streptokinase expression inhibitors, potency, dose response, plasminogen activation absorbance, OD405 (AID 1914); assay type: functional, Streptococcus pyogenes M1 GAS;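 also: secreted streptokinase activity via plasminogen activation per viability signal from cell pellet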
T5 sequence (P10520 whole entry): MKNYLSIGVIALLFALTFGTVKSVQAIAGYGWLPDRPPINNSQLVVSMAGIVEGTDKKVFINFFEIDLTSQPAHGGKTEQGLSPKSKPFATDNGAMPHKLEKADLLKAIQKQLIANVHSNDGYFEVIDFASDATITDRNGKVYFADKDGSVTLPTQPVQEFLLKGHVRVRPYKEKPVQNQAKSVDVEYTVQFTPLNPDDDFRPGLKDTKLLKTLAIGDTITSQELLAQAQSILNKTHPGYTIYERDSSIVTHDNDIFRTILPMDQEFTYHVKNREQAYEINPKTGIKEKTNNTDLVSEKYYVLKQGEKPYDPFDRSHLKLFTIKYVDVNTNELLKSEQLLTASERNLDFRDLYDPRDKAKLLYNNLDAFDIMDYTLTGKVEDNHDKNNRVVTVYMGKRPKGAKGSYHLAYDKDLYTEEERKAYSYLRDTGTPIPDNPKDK

[10] = HEp-2 cell cytotoxicity, dose response, cytotoxicity control for RSV inhibitor project, HTS (AID 2410); assay type: functional; conditions: human respiratory syncytial virus
[11] = test system: Streptococcus; assay: Group A Streptococcus viability loss, dose response, counter-screen for streptokinase expression inhibitor project, luminescence, BacTiterGlo (AID 1915); assay type: functional, organism-based; conditions: read-out: EC50;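 also: potency for reduction of bacterial viability or growth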
[12] = test system: Streptococcus sp. 'group A'; assay: growth inhibition of control SK(-) GAS strain, dose response, counter-screen for streptokinase expression inhibitor project, luminescence, kanamycin, BacTiterGlo, confirmation (AID 1900); assay type: functional, organism-based
[13] = target: Genome polyprotein (dengue virus type 2, UniProt P29990); assay: Dengue-2 NS5 methyltransferase inhibitors, primary screen, biochemical, confirmation dose response (AID 588689); assay type: functional
[14] = test system: SN12K1; assay: cells; assay type: functional; conditions: Homo sapiens
[15] = test system: P388/ADR; assay: cells; assay type: functional; conditions: Mus musculus
[16] = target: T6, Microphthalmia-associated transcription factor (Homo sapiens, UniProt O75030); assay: TRPM1 promoter luciferase signal decrease, dose response, MITF inhibitor project, cell-based, SK-MEL-5, cherry-picked, set 3 (AID 493073); assay type: functional
T6 sequence (O75030 whole entry): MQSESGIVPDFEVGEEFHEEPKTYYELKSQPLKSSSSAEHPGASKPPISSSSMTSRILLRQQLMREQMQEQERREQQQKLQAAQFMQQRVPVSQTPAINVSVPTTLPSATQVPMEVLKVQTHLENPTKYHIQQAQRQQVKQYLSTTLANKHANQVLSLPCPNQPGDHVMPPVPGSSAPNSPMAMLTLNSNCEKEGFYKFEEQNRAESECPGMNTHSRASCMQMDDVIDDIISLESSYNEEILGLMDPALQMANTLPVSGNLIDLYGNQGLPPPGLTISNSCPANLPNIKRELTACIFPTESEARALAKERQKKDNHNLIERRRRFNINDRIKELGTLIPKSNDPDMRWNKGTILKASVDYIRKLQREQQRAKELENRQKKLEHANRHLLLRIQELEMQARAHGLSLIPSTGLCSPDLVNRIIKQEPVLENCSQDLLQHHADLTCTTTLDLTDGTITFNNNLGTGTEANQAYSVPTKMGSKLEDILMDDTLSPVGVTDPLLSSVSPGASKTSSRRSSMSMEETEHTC

Luciferin 4-monooxygenase, sequence (P08659 whole entry): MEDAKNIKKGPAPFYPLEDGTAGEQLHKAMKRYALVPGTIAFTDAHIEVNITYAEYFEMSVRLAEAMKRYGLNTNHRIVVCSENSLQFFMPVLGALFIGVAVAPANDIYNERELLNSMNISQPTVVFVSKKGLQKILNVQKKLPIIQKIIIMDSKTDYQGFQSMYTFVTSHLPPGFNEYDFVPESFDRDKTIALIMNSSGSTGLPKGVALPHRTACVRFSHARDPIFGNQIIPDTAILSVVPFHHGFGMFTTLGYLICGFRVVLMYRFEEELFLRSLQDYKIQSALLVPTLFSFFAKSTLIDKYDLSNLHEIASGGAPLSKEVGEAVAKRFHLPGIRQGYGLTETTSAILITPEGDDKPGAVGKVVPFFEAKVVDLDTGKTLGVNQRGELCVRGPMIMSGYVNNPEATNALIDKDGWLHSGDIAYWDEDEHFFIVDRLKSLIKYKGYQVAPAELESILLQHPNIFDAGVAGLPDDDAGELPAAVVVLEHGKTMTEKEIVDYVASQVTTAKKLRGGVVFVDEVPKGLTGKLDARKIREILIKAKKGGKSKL
Genome polyprotein, sequence (P29990 2492-3391 limits assumed): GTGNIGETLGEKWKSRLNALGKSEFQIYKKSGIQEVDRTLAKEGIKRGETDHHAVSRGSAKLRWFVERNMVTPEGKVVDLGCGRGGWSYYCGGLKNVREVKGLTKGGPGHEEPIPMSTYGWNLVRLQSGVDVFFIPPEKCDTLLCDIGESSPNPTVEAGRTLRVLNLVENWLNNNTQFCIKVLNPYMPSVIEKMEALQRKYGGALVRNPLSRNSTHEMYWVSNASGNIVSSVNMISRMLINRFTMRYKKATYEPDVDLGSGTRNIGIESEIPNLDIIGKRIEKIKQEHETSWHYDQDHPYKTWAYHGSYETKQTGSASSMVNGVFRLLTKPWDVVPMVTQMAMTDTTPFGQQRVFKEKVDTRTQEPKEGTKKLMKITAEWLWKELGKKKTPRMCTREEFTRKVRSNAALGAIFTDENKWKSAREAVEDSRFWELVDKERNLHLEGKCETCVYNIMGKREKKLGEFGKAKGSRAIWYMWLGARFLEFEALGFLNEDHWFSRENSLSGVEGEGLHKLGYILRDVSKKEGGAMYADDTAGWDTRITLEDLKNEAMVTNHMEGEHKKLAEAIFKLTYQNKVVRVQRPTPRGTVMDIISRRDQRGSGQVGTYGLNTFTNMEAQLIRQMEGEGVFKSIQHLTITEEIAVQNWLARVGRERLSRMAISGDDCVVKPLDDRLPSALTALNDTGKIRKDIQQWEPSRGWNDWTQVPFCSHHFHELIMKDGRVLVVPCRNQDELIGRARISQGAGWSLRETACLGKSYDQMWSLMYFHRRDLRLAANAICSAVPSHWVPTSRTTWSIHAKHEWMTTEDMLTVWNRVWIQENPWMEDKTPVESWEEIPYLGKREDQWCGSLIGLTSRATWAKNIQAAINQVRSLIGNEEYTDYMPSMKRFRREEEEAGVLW

CN(C)C(=O)COC(=O)c1ccc(S(=O)(=O)NCc2ccco2)cc1
IC50 [1]: 6.65 µM (active)

Cc1ccccc1NC(=O)/C(C#N)=C\c1cc(C)n(-c2ccc(C(=O)O)cc2)c1C
EC50 [2]: > 300 µM (not active) | EC50 [3]: > 300 µM (not active)

O=C1NC(=O)N(c2ccc(F)cc2)C(=O)/C1=C/Nc1ccccc1N1CCCC1
EC50 [2]: 76.7 µM (active) | EC50 [3]: 103 µM (active)

COCCN(C(=O)c1cc(-c2ccco2)nc2ccccc12)c1c(N)n(Cc2ccccc2)c(=O)[nH]c1=O
IC50 [1]: 6.59 µM (active)

O=C(/C=C/c1ccccc1[N+](=O)[O-])c1ccccc1Br
AC50 [4]: 7.14 µM (active) | AC50 [5]: 4.37 µM (active)

COc1cccc(NC(=O)c2cccs2)c1
EC50 [6]: > 112 µM (not active) | EC50 [7]: > 112 µM (not active)

CC(=O)Nc1ccc(NC(=O)CSc2nc(N)c(NC(=O)c3ccccc3F)c(=O)[nH]2)cc1
IC50 [1]: 11.9 µM (active)

C=CCn1c(N)c(C(=O)Nc2cccc(C)c2)c2nc3ccccc3nc21
EC50 [8]: 13.3 µM (active) | EC50 [9]: > 150 µM (not active) | CC50 [10]: 11.4 µM (active) | EC50 [11]: 8.54 µM (active) | EC50 [12]: 2.97 µM (active)

Cc1nn(C)c(Cl)c1CN1CCN(C2CCCCC2)C(CCO)C1 (centres undefined)
EC50 [6]: > 112 µM (not active) | EC50 [7]: > 112 µM (not active)

CC(C)OP(=O)(OC(C)C)C1(NS(=O)(=O)c2ccc(Cl)cc2)C=C(Cl)C(=O)C(Cl)=C1
IC50 [13]: 99.3 µM (active)

CCOC(=O)C1CCCN(C2CC(=O)N(c3cccc(C(F)(F)F)c3)C2=O)C1 (centres undefined)
AC50 [5]: 7.53 µM (active)

Fc1cc(F)cc(-c2c(-c3ccccc3)ncc3ccc(F)cc23)c1
IC50 [1]: 8.88 µM (active)

COc1ccc(/C=C(\C#N)C(=O)Nc2ccc3[nH]c(O)nc3c2)cc1
IC50 [1]: 3.26 µM (active)

CCOC(=O)/C(C#N)=C/c1cc2ccccc2nc1N1CCCCC1
EC50 [2]: > 300 µM (not active) | EC50 [3]: 104 µM (active)

COC(=O)C(C#N)c1nc2ccccc2nc1N1CCN(Cc2ccc3c(c2)OCO3)CC1 (centres undefined)
EC50 [6]: > 112 µM (not active) | EC50 [7]: > 112 µM (not active)

CCN1CCN(C(=O)c2ccc3c(=O)n(Cc4ccccc4OC)c(=S)[nH]c3c2)CC1
EC50 [2]: > 300 µM (not active) | EC50 [3]: > 300 µM (not active)

Nc1cc2[nH]cnc2c(=O)[nH]1 [DEZAGUANINE]
GI50 [14]: 13.8 µM (inactive) | GI50 [15]: 10.2 µM (inactive)

O=C(/C=C/c1ccco1)NCCCN1CCN(CCCNC(=O)/C=C/c2ccco2)CC1
EC50 [6]: > 112 µM (not active) | EC50 [7]: > 112 µM (not active)

CN1CCN(C(=O)c2cc(COc3c(F)cccc3F)on2)CC1c1ccccc1 (centres undefined)
AC50 [5]: 0.566 µM (active)

Cc1cc(C)n(Cc2ccc(F)cc2)c(=O)c1C#N
EC50 [6]: 15.7 µM (active) | EC50 [7]: > 112 µM (not active)

CC1CCN(C(=O)C2CCN(CC(C)c3ccccc3)CC2)CC1 (centres undefined)
EC50 [6]: > 112 µM (not active) | EC50 [7]: > 112 µM (not active)

CN1C(=O)C(=Cc2ccccc2OS(=O)(=O)c2ccccc2)C(=O)N(C)C1=O
EC50 [2]: > 300 µM (not active) | EC50 [3]: > 300 µM (not active)

O=C(Cn1cc(/C=N/NC(=O)c2cccc(C(F)(F)F)c2)c2ccccc21)Nc1ccc(F)cc1
IC50 [1]: 4.23 µM (active)

COc1cccc(NC(=O)C(=O)c2cn(CC(=O)N3CCOCC3)c3ccccc23)c1
EC50 [2]: > 300 µM (not active) | EC50 [3]: > 300 µM (not active)

O=C(c1ccc([N+](=O)[O-])s1)N1CCCc2ccccc21
AC50 [16]: 11.2 µM (active)

Cc1ccc(N2C(=O)C3C4C=CC(CN=C(S)N5CCN(c6cccc(C)c6)C(C)C5)(O4)C3C2=O)cc1 (centres undefined)
AC50 [5]: 8.5 µM (active)
